“Also recorded” adds a separate entry of the source. Positions of bridges follow the written chain, without caps; N, C: chain ends. Chains are numbered I, II in the order given. No end group written: not given here.

In one assay the target is T1, insulin receptor (Homo sapiens, UniProt P06213).
T1 construct: crude membrane preparations of term placenta; from tissue; host or cells: term placenta, crude membranes
Description: Insulin-receptor binding assay on crude membrane preparations of term placenta. The conditions noted are these: term placenta crude membranes; 125I-iodo-TyrA14 porcine insulin tracer. On the procedure: Insulin-receptor binding assays were performed on crude membrane preparations of term placenta, as described in Hock and Hollenberg, 1980, J. Biol. Chem. 255:10731-10736, using ^125I-iodo-Tyr^A14 porcine insulin as tracer according to the method of Linde, et al., 1986, J. Chromatogr. 369:327-339.
The assays were performed in HMS-buffer (25 mM HEPES, 104 mM NaCl, 5 mM MgCl2, 0.2% bovine serum albumin; pH 7.4) in a total volume of 100 μl. Labeled insulin (50,000 cpm/assay, 150 pM) and variable amounts of insulin were incubated with crude membranes for 1 h at room temperature. Thereafter 1 ml of buffer was added, the membranes collected by centrifugation in a microcentrifuge at 14,000 rpm for 5 min, the supernatant discarded, and the tip of the Eppendorf vial cut off and counted in a γ-counter (Minigamma, LKB, Sweden). To determine nonspecific binding unlabeled insulin was used at a concentration of 2 μl/ml (0.33 μM) and nonspecific binding was usually below 10% of the total binding.

Assay [1] concerns mouse brain relaxin receptor. Description: Relaxin-binding assay, mouse brain crude membranes, porcine relaxin tracer. On the procedure:
(§1) Relaxin-binding assays were performed as described in Yang, et al., 1992, Endocrinology 130:179-185 and Büllesbach, et al., 1994, Endocrine. 2:1115-1120, using crude membrane preparations of mouse tissue. Mouse brains of 2 mice were collected into 15 ml of chilled buffer (25 mM HEPES, 0.14 M NaCl, 5.7 mM KCI, 0.2 mM phenylmethylsulfonyl-fluoride, and 80 mg/ml soybean trypsin inhibitor, pH 7.5) supplemented with sucrose (0.25 M, final concentration). The tissue was homogenized on ice for 10 s with a Polytron homogenizer (Brinlmann, Westbury, N.Y.) at setting 5. The homogenate was centrifuged at 700 rpm for 10 min at 4° C. and the supernatants were recentrifuged at 10,000×g for 1 h. The pellet was resuspended in 15 ml of ice cold binding buffer, 25 mM HEPES, 0.14 M NaCl, 5.7 mM KCI, 0.2 mM phenylmethylsulfonylfluoride, and 80 mg/ml soybean trypsin inhibitor, pH 7.5, supplemented with 1% bovine serum albumin, and centrifuged for 1 h at 10,000×g. The crude membrane preparation was suspended in 1 ml of binding buffer and 40 μl was used per assay. The assay was performed using 40 μl of tracer (about 100,000 cpm of porcine relaxin tracer=150 pM) and 20 μl of relaxin at various concentrations. The assay was incubated for 1 h at room temperature, and the suspension diluted with 1 ml of wash buffer (25 mM HEPES, 0.14 M NaCl, 5.7 mM KCI, 1% bovine serum albumin, 0.01% NaN3) and centrifuged in Eppendorf centrifuge at 14,000 rpm for 10 min. The supernatant was discarded, the tip of the vial cut and counted in a γ-counter. Nonspecific binding was determined in the presence of 2 μl/ml of unlabeled competitor (0.33 μM). In a typical experiment the specific binding was between 25% and 40% of the total binding.

For another assay, the target named is T2, RLF receptor (brain) (Mus musculus, UniProt Q91ZZ5).
T2 construct: from tissue; host or cells: mouse brain, crude membranes
In words: Binding assay, mouse brain crude membranes, hRLF tracer. The protocol:
as §1, with “The crude membrane preparation was suspended in 1 ml of binding buffer and 40 μl was used per assay. The assay was performed using 40 μl of tracer (about 100,000 cpm of porcine relaxin tracer=150 pM) and 20 μl of relaxin at various concentrations. The assay was incubated for 1 h at room temperature, and the suspension diluted with 1 ml of wash buffer (25 mM HEPES, 0.14 M NaCl, 5.7 mM KCI, 1% bovine serum albumin, 0.01% NaN3) and centrifuged in Eppendorf centrifuge at 14,000 rpm for 10 min.” left out, “In a typical experiment the specific binding was between 25% and 40% of the total binding.” left out
Tissue specificity was determined using crude membrane preparations of leg muscles, kidneys, liver. brain, and uterus (of estrogen primed mice). […] Binding was based on protein concentration determined by Lowry. […]

The test system of another assay is washed human sperm. In words: Sperm motility assay. In kind it is cell-based. The conditions noted are these: 10 and 100 ng/ml. From the text:
Materials And Methods. Semen is obtained by masturbation from healthy volunteers. The sample is allowed to liquefy at room temperature and is then mixed with Minimum Essential Medium (MEM) with Hepes buffer added. This medium is used because it coincides with that washing medium employed by the in vitro clinic at MUSC. The sperm is then separated from the seminal fluid and MEM by centrifugation. The resultant sperm pellet is then resuspended in MEM at room temperature. Aliquots are then place in siliconized centrifuge tubes and one of several compounds added: l)human relaxin 10 ng/ml, 2)human relaxin 100 ng/ml, 3)relaxin-like factor 10 ng/ml, 4)relaxin-like factor 100 ng/ml, 5)one fraction of alkaline gland fluid from stingrays diluted 1:8 with pentoxyfyline. The additive is mixed well with the sperm/medium mixture. Samples are taken at 0, 2, 4, 6 and 24 hour intervals for automated determination of the following parameters: 1)motility, 2)progressivity, 3)path velocity, 4)progressive velocity, 5)track speed, 6)elongation, 7)lateral displacement, 8)cross beat frequency, 9)straightness, 10)linearity. Briefly described, each sample is loaded into a Maker heated specimen chamber and viewed in a light microscope equipped with laser doppler optics (IVOS, Beverly, Mass.).

For assay [2], the system named is procollagenase expression, rheumatoid synovial fibroblasts (Strain No. RSF112). Description: Stimulation of procollagenase expression by synovial fibroblasts (gelatin zymography). In kind it is cell-based, human. An excerpt: A method for detecting and measuring procollagenase formation is described in Unemori, et al., 1991, J. Biol. Chem. 266:23477-482. Such method was modified to measure the expression of procollagenase in the presence of RLF as follows: Materials And Methods. Rheumatoid synovial fibroblasts (Strain No. […] Conditioned media were collected and an aliquot analyzed by gelatin zymography. Procollagenase was identified as a […] doublet at 52/57 kDa. The intensity of the doublet (i.e., the amount of procollagenase expressed, was quantified by scanning densitometry.

Assay [3] has as its system symphysis pubis of ovariectomized estrogen-primed female mice. Description: Mouse symphysis pubis (interpubic ligament) assay. It counts as in vivo. On the procedure: Mouse interpubic ligament assays were performed essentially as described by Steinetz, et al., 1960, Endocrinology 67:102-115. Ovariectomized virgin female mice were printed with 5 μg estrogen cypionate in 100 μl sesame oil. Five days later the mice were injected subcutaneously with human relaxin, RLF, or mixtures of human relaxin and RLF in 100 μl of 0.1% benzopurpurin 4B. Specifically, groups of five animals received either human relaxin at a suboptimal dose or a mixture of 0.2 μg, 0.4 μg and 0.8 μg human relaxin and 5 μg of RLF as given in FIG. 8. For negative control 100 μl of 0.1% benzopurpurin 4B in water were injected. After 16 hours the mice were killed in an atmosphere of CO2, the symphysis pubis dissected free, and the distance between the interpubic bones measured with a dissecting microscope fitted with transilluminating fiber optics.

T2 sequence (Q91ZZ5 whole entry): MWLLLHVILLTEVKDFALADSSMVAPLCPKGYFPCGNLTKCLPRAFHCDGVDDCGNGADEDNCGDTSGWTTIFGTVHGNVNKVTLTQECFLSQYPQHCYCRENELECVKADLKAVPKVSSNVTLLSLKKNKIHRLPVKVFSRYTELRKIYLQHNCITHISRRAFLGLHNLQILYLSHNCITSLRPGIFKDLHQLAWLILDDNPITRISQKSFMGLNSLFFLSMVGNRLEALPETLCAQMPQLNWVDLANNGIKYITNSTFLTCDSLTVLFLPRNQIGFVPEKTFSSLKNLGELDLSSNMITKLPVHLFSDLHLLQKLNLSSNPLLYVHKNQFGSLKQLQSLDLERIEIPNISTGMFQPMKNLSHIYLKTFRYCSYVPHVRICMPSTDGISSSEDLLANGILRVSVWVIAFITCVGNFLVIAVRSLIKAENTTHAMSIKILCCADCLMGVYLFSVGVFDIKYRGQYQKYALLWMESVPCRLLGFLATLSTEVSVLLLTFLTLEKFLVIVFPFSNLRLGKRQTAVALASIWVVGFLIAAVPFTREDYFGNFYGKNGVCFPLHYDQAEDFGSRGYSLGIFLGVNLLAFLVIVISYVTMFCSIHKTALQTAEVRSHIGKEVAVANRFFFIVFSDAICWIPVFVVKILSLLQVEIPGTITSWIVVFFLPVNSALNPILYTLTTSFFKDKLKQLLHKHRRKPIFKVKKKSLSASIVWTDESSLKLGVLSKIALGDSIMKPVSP

On to “RLF: synthesized human relaxin-like factor, two-chain peptide (A and B chain, SEQ ID NOS:3 and 4), three disulfide links (alpha AAATNPARYCCLSGCTQQDLLTLCPY; beta PTPEMREKLCGHHFVRALVRVCGGPRWSTEA; disulfide I:11-II:10; also: two further disulfide bonds, places not given here)”, for which, in the assay with insulin receptor, the “binding to the insulin receptor” value is “does not bind with any significant degree”. In assay [1] (mouse brain), the “crossreactivity with the brain relaxin receptor” value was “moderate crossreactivity”. Further, the “excess that displaces 50% of the relaxin tracer” value in assay [1] (mouse brain relaxin receptor preparation) was “hundred-fold”. The “50% Binding” value was found to be 200 ng in assay [1] (mouse brain, tracer pRLX) and 0.3 ng with RLF receptor (brain). In the assay with washed human sperm, the “potency in maintaining sperm motility relative to relaxin” value was “as potent in maintaining sperm motility at both doses as was relaxin”. The “effect on sperm motility compared to untreated controls” value in the assay with washed human sperm (0-24 h) is reported as “preserve the motility”. In addition, the entries for the “stimulation of procollagenase expression” value in assay [2] (1 ng/ml), in assay [2] (10 ng/ml) and in assay [2] (100 ng/ml) were 0 fold, 2.0 fold and 4.2 fold, respectively. Also, the “effect on the activity of human relaxin in the mouse bioassay” value in assay [3] (0.2, 0.4, 0.8 μg human relaxin with 5 μg RLF) is given as “significantly increased the activity of human relaxin”. Further, in assay [3] (in the presence of 0.5 μg of human relaxin), the “optimal RLF amount for relaxin enhancement” value turned out to be 5 µg. Further, the “effect of RLF on the relaxin effect at maximal dose” value in assay [3] (maximal dose of both) was “still augmented”. In assay [3] (subcutaneous, 16 hours), the “symphyseal widening, RLF alone” value is given as “no effect; also recorded: does not cause symphyseal widening”.
